# Measurements from US10494453B2, “Conjugate compound and uses of same” (THE UNIVERSITY OF QUEENSLAND, priority 2013, dated 2019).
# Where two headings read alike, the source gives them in different places.
# Assays:
# MPCs [1] = conditions: cited from earlier work; for Promotion of chondrogenesis of MPCs: absent growth factors or other chondroinductive supplements
# MPCs [2] = experiment: qPCR gene expression of MPC pellets (chondrogenic differentiation); format: cell-based, human; conditions: for Expression of BMP13: over untreated controls
# Method: (§1) Stro1-selected human MPCs were prepared by Lonza (Walkersville, USA) for Mesoblast Ltd (Melbourne, Australia) according to the isolation procedure described by Gronthos et al. MPCs were cultured in alphaMEM supplemented with 100 U/ml penicillin, 100 μg/ml streptomycin (Gibco/Invitrogen Carlsbad, Calif., USA), 10% batch tested foetal bovine serum (FBS), 2 mM L-Glutamine, 1 mM Sodium Pyruvate, and 100 μM L-ascorbate-2-Phosphate. Tissue culture flasks were maintained at 37° C. in 5% CO2 in an atmosphere with 95% humidity. Upon reaching 70% confluence MPCs were passaged, replating at 2000 cells/cm2.
# (§2) Chondrogenic differentiation was compared for MPCs cultured in maintenance medium and treated with PPS, HA, HA-PPS and HA-PPSCOOH at concentrations equivalent to 5, 10 and 20 μg/ml unbound PPS. These factors were added to the cells prior to pellet formation, which was initiated by centrifuging 2×105 MPCs in a non-adherent U-bottom plate at 500 g for 10 min. MPC pellets were cultured in […] medium with media changes every 3-4 days. After 21 days, samples were taken for analysis by histological staining, DMMB assay and qPCR.
# Total RNA was extracted using an RNeasy Minikit with on-column DNase treatment (Qiagen) according to the manufacturer's instructions, cDNA was synthesized from 250 ng RNA, or the equivalent volume of DNase and RNasefree water for no-RT controls, using the SuperScript® III First-Strand Synthesis System (Invitrogen). qPCR reactions were set-up in a total volume of 10 μl with 1× Platinum SYBR Green qPCR SuperMix-UDG (Invitrogen) and 0.2 μM forward and reverse primers. A 7500 Fast Real-Time PCR System (Applied Biosystems) with fast cycling parameters of 2 min at 50° C., 2 min at 95° C. then 40 cycles of 3 sec at 95° C. and 30 sec at 60° C. followed by a melt curve was used to run the samples. Data was analysed using the 2-^ΔΔct method and normalized back to untreated monolayer levels.
# MPCs [3] = experiment: DMMB assay for GAG content of chondrogenic MPC pellets; format: cell-based, human
# Method: as §2
# Chondrogenic pellets were collected, rinsed in PBS and lysed in 1 mg/ml Papain in 100 mM sodium phosphate, 5 mM EDTA and 5 mM L-cystein (pH 6.5) overnight at 60° C. Samples of 40 μl were plated in triplicate with the addition of 10 μl 1% BSA in PBS and 50 μl 2×1,9-dimethylmethylene blue (DMMB). These were incubated at room temperature for 15 min and the absorbance at 525 nm read using a Spectramax M5 Fluorometer (Molecular Devices). Samples were normalized to DNA content as assessed by PicoGreen assay (Molecular Probes: performed according to the manufacturer's instructions).
# [4] = Rheological characterisation of PEG/HA hydrogels; format: physicochemical; conditions: incorporated into PEG/HA hydrogel
# Method: All rheological measurements were obtained using an AR G2 rheometer (TA Instruments, New Castle, Del.) in oscillatory mode using a 20 mm diameter stainless steel flat plate and lower Teflon Pelletier surface. The gels were synthesized and, upon addition of the H2O2, immediately vortexed and loaded between the plates of the rheometer with a gap measurement of 1000 μm. Gelation kinetics and final moduli were determined by timesweeps at 37° C., conducted with a controlled strain of 1% and an angular frequency of 6.28 rad/sec. Frequency sweeps were performed between 5.000E-3 to 50 rad/sec at 1% strain. Stress sweeps confirmed that this was within the linear viscoelastic region.
# Swelling of hydrogels = format: physicochemical; conditions: incorporated into the hydrogels; p<0.05
# Method: To determine the degree of swelling, 50 μl gels were synthesized and the dry weight obtained after freeze-drying for 24 hrs (Wd). The gels were then incubated in 500 μl PBS for 24 hrs at […]. The PBS was removed and the gels reweighed (Ws). The degree of swelling was determined by ((Ws-Wd)/Wd) using triplicate gels for each condition. Degradation of 50 μl gels was measured over a period of 3 months using triplicate samples for each condition. After synthesis, the gels were incubated in PBS/0.01% Sodium azide at 37° C. with weekly changes of buffer. At specific tirnepoints all excess PBS was removed and the gels weighed. The degree of degradation was expressed as a % of the original gel mass.
# MPCs [5] = experiment: Live/dead staining of MPCs encapsulated in HA/PEG hydrogels; format: cell-based, human; conditions: HA/PEG hydrogels containing the substance; 24 hrs and 7 days
# Method: (§3) MPCs (P4-6) were encapsulated in gels containing 15 mg/ml HATYR, 16.5 mg/ml PEGHPA. 0.25 U/ml horseradish peroxidase (HRP) and varying amounts of hydrogen peroxide (H2O2). Soluble PPS was added into the gels prior to crosslinking at a final concentration of 5 μg/ml. HA-PPS and HA-PPSCOOH were incorporated at concentrations of 16 μg/ml and 9 μg/ml respectively giving a concentration of PPS equivalent to 5 μg/ml unbound PPS.
# (§4) MPCs were resuspended to a concentration of 5×10^6 cells/ml in solution containing all of the components except H2O2 and thoroughly mixed. Crosslinking was then initiated by the addition of H2O2 and the gels spotted out into lowbinding tissue culture plates. After 15 minutes, growth media was added to the well and the cell/gel composites cultured for up to 21 days with media changes every 3-4 days.
# MPCs [6] = experiment: Collagen-II immunofluorescence of MPC/hydrogel composites; format: cell-based, human; conditions: compared to gels alone
# Method: as §3, §4
# Samples were fixed in 4% paraformaldehyde for 20 min and rinsed with PBS. To detect Collagen-II, the samples were digested with 0.01% pepsin (w/v) in 0.01M HCL (pH2) for 30 min at 37° C. and incubated in 0.1% Triton-X-100 for […] at RT° C. before blocking in 2% BSA/2% goat serum for 1 hr. A Collagen-II antibody (Abram ab3092) was used at a dilution of 1/50 for 2 hrs followed by incubation with an AlexFluor 488-conjugated secondary antibody for 1 hr. […]
# MPCs [7] = experiment: CCK8 assay of MPC proliferation; format: cell-based, human; conditions: 7 days; concentrations equivalent to 5, 10 and 20 μg/ml unbound PPS
# Method: as §1
# MPCs were seeded at a density of 2000 cells/cm2 in a 96-well plate and allowed to adhere for 4 hrs at which point the medium was exchanged for MPC maintenance medium supplemented with PPS, HA, HA-PPS and HA-PPSCOOH at concentrations equivalent to 5, 10 and 20 μg/ml unbound PPS. MPCs were cultured for 7 days with media changes every 2-3 days and the cell number determined by CCK8 assay (Sigma). Briefly, the culture medium was replaced with 100 μl MPC maintenance medium (without phenol red) containing 10% (v/v) CCX8. After 2 hrs the absorbance was read at 450 nm. All samples were performed in triplicate and normalised to blank medium without cells.
# [8] = absence of differentiation factors
substance,measurement,setting,value
dextran sulphate,Promotion of chondrogenesis of MPCs,MPCs [1],did not show any success
pentosan polysulfate [PPS],Expression of osteogenic transcription factor Runx2,"MPCs [2]; absence of any differentiation factors, vs untreated controls",small but significant decrease
same,Expression of the BMP antagonist Noggin,MPCs [2]; [8],decreased
same,Expression of BMP13,MPCs [2]; [8],significantly increased
same,GAG content (DMMB assay),"MPCs [3]; % of untreated pellets, after 21 days, no additional chondrogenic factors",150%
same,Gelation process of hydrogel,[4],slows the gelation process
same,Resulting modulus of hydrogel,[4],small decrease in resulting modulus
same,Change in swelling of hydrogel,Swelling of hydrogels,decreased
same,Viability of encapsulated MPCs,MPCs [5],retained good viability
same,Deposition of collagen-II around encapsulated MPCs,MPCs [6],increased
same,Promotion of chondrogenesis of MPCs,MPCs [1],induced the in vitro proliferation and chondrogenic differentiation of MPCs
heparin,Promotion of chondrogenesis of MPCs,MPCs [1],did not show any success
hyaluronic acid [HA],MPC proliferation (CCK8 assay),MPCs [7],did not have this effect
same,Expression of BMP13,MPCs [2]; [8],no effect
same,GAG production by MPCs,MPCs [3]; exposure of MPCs to substance alone,did not produce any increase in GAG production
same,Proteoglycan (PG) synthesis by MPCs,MPCs [1]; higher concentrations,inhibited PG synthesis
same,Proteoglycan (PG) synthesis by MPCs,MPCs [1]; low concentrations,showed some stimulation
